Test results from US10221179B2, “Substituted pyrazoloquinazolinones and pyrroloquinazolinones as allosteric modulators of group II metabotropic glutamate receptors” (DOMAIN THERAPEUTICS, priority 2014, dated 2019).

Assays:
[1] = target: T1, human mGluR2 (hmGluR2) (Homo sapiens, UniProt Q14416); assay: Ca++ functional assay, human mGluR2 transiently over-expressed in HEK-293 cells (agonist and negative allosteric modulator modes); format: cell-based; conditions: glutamate at EC80, intracellular calcium (Fluo4AM), read-out: hmGluR2 negative allosteric modulator activity IC50
T1 construct: expressed in transfected cells; host or cells: HEK-293 cells, transient co-transfection by electroporation
T1 sequence (Q14416 19-872): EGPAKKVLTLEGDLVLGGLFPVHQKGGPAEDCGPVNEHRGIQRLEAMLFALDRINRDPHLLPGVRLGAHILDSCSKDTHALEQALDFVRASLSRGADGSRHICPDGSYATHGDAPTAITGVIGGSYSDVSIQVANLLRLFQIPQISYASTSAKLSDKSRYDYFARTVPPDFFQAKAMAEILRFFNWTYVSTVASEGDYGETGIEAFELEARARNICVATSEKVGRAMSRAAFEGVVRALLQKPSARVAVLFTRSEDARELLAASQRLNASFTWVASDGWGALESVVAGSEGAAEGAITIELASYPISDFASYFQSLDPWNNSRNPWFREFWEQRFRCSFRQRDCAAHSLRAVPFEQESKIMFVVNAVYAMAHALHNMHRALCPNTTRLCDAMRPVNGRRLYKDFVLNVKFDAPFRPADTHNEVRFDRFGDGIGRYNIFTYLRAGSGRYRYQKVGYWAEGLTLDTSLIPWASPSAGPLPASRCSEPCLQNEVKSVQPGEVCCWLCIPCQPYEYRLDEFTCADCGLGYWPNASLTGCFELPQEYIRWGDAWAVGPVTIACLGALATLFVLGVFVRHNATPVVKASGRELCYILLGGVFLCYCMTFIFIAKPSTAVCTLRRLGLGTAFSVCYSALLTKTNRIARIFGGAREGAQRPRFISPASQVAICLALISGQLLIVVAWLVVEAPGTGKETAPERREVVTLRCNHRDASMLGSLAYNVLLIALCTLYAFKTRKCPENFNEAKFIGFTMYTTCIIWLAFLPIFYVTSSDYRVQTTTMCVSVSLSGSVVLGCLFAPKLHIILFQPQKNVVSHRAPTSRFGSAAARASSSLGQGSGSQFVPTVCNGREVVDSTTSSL
Description: Example 127: Human mGluR2 and mGluR3 Evaluation Using Ca^++ Functional Assay
Examples of the present invention were tested successively for their agonist and negative allosteric modulator activities on human mGluR2 (hmGluR2) and mGluR3 (hmGluR3) transiently over-expressed in HEK-293 cells.
Cell Culture and Transfection
HEK-293 cells are maintained in Modified Eagle's Medium supplemented with 10% Foetal Calf Serum, 1% Penicillin/Streptomycin and 1% non-essential amino acids at 37° C./5% CO2.
Cells are co-transfected by electroporation with four DNA plasmids encoding hmGluR2 or hmGluR3, a chimeric G protein allowing redirection of the activation signal to intracellular calcium pathway (Brabet I et al., Neuropharmacology 37(8), 1043-51, 1998), and two glutamate transporters minimizing receptor desensitization by endogenous glutamate. After transfection, cells are cultured for 24 h at 37° C./5% CO2.
Calcium Assay IC50 Determination
Receptor activity is detected by changes in intracellular calcium measured using the fluorescent Ca^2+ sensitive dye, Fluo4AM (Molecular Probes).
On the day of the assay, culture medium is aspirated and replaced during 3 hours by medium without serum supplemented with 1% Glutamax, 1% Penicillin/Streptomycin and 1% non-essential amino acids. Then, cells are washed with freshly prepared buffer B (HBSS 1×(PAA), Hepes 20 mM, MgSO4-7H2O 1 mM, Na2CO3 3.3 mM, CaCl2-2H2O 1.3 mM, 0.1% BSA, Probenecid 2.5 mM) and loaded at 37° C. in 5% CO2 for 1.5 hours with buffer B containing 1 μM Fluo4AM, 0.1 mg/mL Pluronic Acid, 7 μg/mL Glutamate Pyruvate Transaminase and 2 mM sodium pyruvate. Afterwards cells are washed twice with buffer B. Then cells are detached using StemPro Accutase (Fischer Scientific), resuspended in buffer B and seeded in 384 well plate at a density of 30,000 cells per well. Addition of compounds and intracellular Ca^2+ measurements (excitation 485 nm, emission 525 nm) are performed by the fluorescence microplate reader FLIPRTetra (Molecular Devices).
Agonist and negative allosteric modulator activities of compounds are consecutively evaluated on the same cell plate. […] Then, cells are stimulated by an EC80 glutamate concentration and fluorescence is recorded for additional 3 minutes. EC80 glutamate concentration is the concentration giving 80% of the maximal glutamate response. Agonist or negative allosteric modulator activity(ies) are evaluated in comparison to basal signals evoked by buffer B or EC80 glutamate alone, respectively.
For IC50 determination, a dose-response test is performed using 20 concentrations (ranging over 6 logs) of each compound. Dose-response curves are fitted using the sigmoidal dose-response (variable slope) analysis in GraphPad Prism program (Graph Pad Inc) and IC50 of negative allosteric modulator activity is calculated. Dose-response experiments are performed in duplicate, two times independently.

| Compound | IC50 [1] | melting point |
| --- | --- | --- |
| [2H]C([2H])([2H])n1c(=O)c2ccccc2n2nc(-c3ccnc(C(C)(F)F)c3)cc12 [Example 33, 2-[2-(1,1-Difluoro-ethyl)-pyridin-4-yl]-4-methyl(D3)-4H-pyrazolo[1,5-a]quinazolin-5-one] | < 1 µM | 198 to 205 °C |
| Cc1ccc2c(c1)c(=O)n(C)c1cc(-c3ccnc(C(F)(F)F)c3)nn21 [Example 34] | < 1 µM | 215 to 218 °C |
| COc1ccc2c(c1)c(=O)n(C)c1cc(-c3ccnc(C(F)(F)F)c3)nn21 [Example 36] | < 1 µM | 201 to 205 °C |
| Cn1c(=O)c2cc(F)ccc2n2nc(-c3ccnc(C(F)(F)F)c3)cc12 [Example 38] | < 1 µM | > 250 °C |
| CNc1ccc2c(c1)c(=O)n(C)c1cc(-c3ccnc(C(F)(F)F)c3)nn21 [Example 40, 4-Methyl-7-methylamino-2-(2-trifluoromethyl-pyridin-4-yl)-4H-pyrazolo[1,5-a]quinazolin-5-one] | < 1 µM | > 250 °C |
| [2H]C([2H])([2H])Nc1ccc2c(c1)c(=O)n(C)c1cc(-c3ccnc(C(F)(F)F)c3)nn21 [Example 41, 4-Methyl-7-methyl(D3)amino-2-(2-trifluoromethyl-pyridin-4-yl)-4H-pyrazolo[1,5-a]quinazolin-5-one] | < 1 µM | > 250 °C |
| CN(C)c1ccc2c(c1)c(=O)n(C)c1cc(-c3ccnc(C(F)(F)F)c3)nn21 [Example 44, 7-Dimethylamino-4-methyl-2-(2-trifluoromethyl-pyridin-4-yl)-4H-pyrazolo[1,5-a]quinazolin-5-one] | < 1 µM | > 250 °C |
| CCNc1ccc2c(c1)c(=O)n(C)c1cc(-c3ccnc(C(F)(F)F)c3)nn21 [Example 45, 7-Ethylamino-4-methyl-2-(2-trifluoromethyl-pyridin-4-yl)-4H-pyrazolo[1,5-a]quinazolin-5-one] | < 1 µM | 239 to 242 °C |
| Cn1c(=O)c2cc(O)ccc2n2nc(-c3ccnc(C(F)(F)F)c3)cc12 [Example 48, 7-Hydroxy-4-methyl-2-(2-trifluoromethyl-pyridin-4-yl)-4H-pyrazolo[1,5-a]quinazolin-5-one] | < 1 µM | > 250 °C |
| CCOc1ccc2c(c1)c(=O)n(C)c1cc(-c3ccnc(C(F)(F)F)c3)nn21 [Example 49, 7-Ethoxy-4-methyl-2-(2-trifluoromethyl-pyridin-4-yl)-4H-pyrazolo[1,5-a]quinazolin-5-one] | < 1 µM | 152 to 158 °C |
| Cn1c(=O)c2ccc(F)cc2n2nc(-c3ccnc(C(F)(F)F)c3)cc12 [Example 55, 8-Fluoro-4-methyl-2-(2-trifluoromethyl-pyridin-4-yl)-4H-pyrazolo[1,5-a]quinazolin-5-one] | < 1 µM | > 250 °C |
| CNc1ccc2c(=O)n(C)c3cc(-c4ccnc(C(F)(F)F)c4)nn3c2c1 [Example 61, 4-Methyl-8-methylamino-2-(2-trifluoromethyl-pyridin-4-yl)-4H-pyrazolo[1,5-a]quinazolin-5-one] | < 1 µM | > 250 °C |
| Cn1c(=O)c2ccc(N3CCC(O)CC3)cc2n2nc(-c3ccnc(C(F)(F)F)c3)cc12 [Example 63, 8-(4-Hydroxy-piperidin-1-yl)-4-methyl-2-(2-trifluoromethyl-pyridin-4-yl)-4H-pyrazolo[1,5-a]quinazolin-5-one] | < 1 µM | 112 to 117 °C |
| CN(C)c1ccc2c(=O)n(C)c3cc(-c4ccnc(C(F)(F)F)c4)nn3c2c1 [Example 64, 8-Dimethylamino-4-methyl-2-(2-trifluoromethyl-pyridin-4-yl)-4H-pyrazolo[1,5-a]quinazolin-5-one] | < 1 µM | > 250 °C |
| Cn1c(=O)c2ccc(N3CC(O)C3)cc2n2nc(-c3ccnc(C(F)(F)F)c3)cc12 [Example 68, 8-(3-Hydroxy-azetidin-1-yl)-4-methyl-2-(2-trifluoromethyl-pyridin-4-yl)-4H-pyrazolo[1,5-a]quinazolin-5-one] | < 1 µM | > 250 °C |
| Cn1c(=O)c2ccc(N3CCC(O)C3)cc2n2nc(-c3ccnc(C(F)(F)F)c3)cc12 (centres unmarked) [Example 70, 8-(3-Hydroxy-pyrrolidin-1-yl)-4-methyl-2-(2-trifluoromethyl-pyridin-4-yl)-4H-pyrazolo[1,5-a]quinazolin-5-one] | < 1 µM | > 250 °C |
| Cn1c(=O)c2ccc(C(N)=O)cc2n2nc(-c3ccnc(C(F)(F)F)c3)cc12 [Example 77, 4-Methyl-5-oxo-2-(2-trifluoromethyl-pyridin-4-yl)-4,5-dihydro-pyrazolo[1,5-a]quinazoline-8-carboxylic Acid Amide] | < 1 µM | > 250 °C |

Results, then the compound that gave them:

| IC50 [1] | melting point | Compound |
| --- | --- | --- |
| < 1 µM | 189 to 191 °C | Cn1c(=O)c2ccccc2n2nc(-c3ccnc(OCC(C)(F)F)c3)cc12 [Example 23, 2-[2-(2,2-Difluoro-propoxy)-pyridin-4-yl]-4-methyl-4H-pyrazolo[1,5-a]quinazolin-5-one] |
| < 1 µM | 150 to 155 °C | Cn1c(=O)c2ccccc2n2nc(-c3ccnc(OCC(F)(F)C(F)(F)F)c3)cc12 [Example 24, 4-Methyl-2-[2-(2,2,3,3,3-pentafluoro-propoxy)-pyridin-4-yl]-4H-pyrazolo[1,5-a]quinazolin-5-one] |
| < 1 µM | 188 to 194 °C | Cn1c(=O)c2ccccc2n2nc(-c3ccnc(OC(C(F)(F)F)C(F)(F)F)c3)cc12 [Example 25, 4-Methyl-2-[2-(2,2,2-trifluoro-1-trifluoromethyl-ethoxy)-pyridin-4-yl]-4H-pyrazolo[1,5-a]quinazolin-5-one] |
| < 1 µM | 232 to 244 °C | Cn1c(=O)c2ccccc2n2nc(-c3ccnc(C(F)(F)F)c3)cc12 [Example 26, 4-Methyl-2-(2-trifluoromethyl-pyridin-4-yl)-4H-pyrazolo[1,5-a]quinazolin-5-one] |
| < 1 µM | 232 to 237 °C | [2H]C([2H])([2H])n1c(=O)c2ccccc2n2nc(-c3ccnc(C(F)(F)F)c3)cc12 [Example 27, 4-Methyl(D3)-2-(2-trifluoromethyl-pyridin-4-yl)-4H-pyrazolo[1,5-a]quinazolin-5-one] |
| < 1 µM | 214 to 220 °C | CCn1c(=O)c2ccccc2n2nc(-c3ccnc(C(F)(F)F)c3)cc12 [Example 28, 4-Ethyl-2-(2-trifluoromethyl-pyridin-4-yl)-4H-pyrazolo[1,5-a]quinazolin-5-one] |
| < 1 µM | 192 to 196 °C | Cn1c(=O)c2ccccc2n2nc(-c3ccnc(C(F)F)c3)cc12 [Example 31, 4-Methyl-2-(2-difluoromethyl-pyridin-4-yl)-4H-pyrazolo[1,5-a]quinazolin-5-one] |
| < 1 µM | 196 to 207 °C | Cn1c(=O)c2ccccc2n2nc(-c3ccnc(C(C)(F)F)c3)cc12 [Example 32, 2-[2-(1,1-Difluoro-ethyl)-pyridin-4-yl]-4-methyl-4H-pyrazolo[1,5-a]quinazolin-5-one] |
